From publication doi:10.1101/694877v2 (biorxiv, 2019) come the findings set out here.

The assay concerns the target hAC2 (Homo sapiens, UniProt Q08462). Nature of the assay: stimulation of adenylate cyclase activity, HTRF cAMP assay. The settings on record: 25 μM forskolin alone, no Gsα, no serum; 1 mM ATP, 2 mM MgCl2, pH 7.5. The format is biochemical. A general note: In TR-FRET formats the signal depends on donor and acceptor labels being close together.

hAC2, sequence (Q08462 whole entry): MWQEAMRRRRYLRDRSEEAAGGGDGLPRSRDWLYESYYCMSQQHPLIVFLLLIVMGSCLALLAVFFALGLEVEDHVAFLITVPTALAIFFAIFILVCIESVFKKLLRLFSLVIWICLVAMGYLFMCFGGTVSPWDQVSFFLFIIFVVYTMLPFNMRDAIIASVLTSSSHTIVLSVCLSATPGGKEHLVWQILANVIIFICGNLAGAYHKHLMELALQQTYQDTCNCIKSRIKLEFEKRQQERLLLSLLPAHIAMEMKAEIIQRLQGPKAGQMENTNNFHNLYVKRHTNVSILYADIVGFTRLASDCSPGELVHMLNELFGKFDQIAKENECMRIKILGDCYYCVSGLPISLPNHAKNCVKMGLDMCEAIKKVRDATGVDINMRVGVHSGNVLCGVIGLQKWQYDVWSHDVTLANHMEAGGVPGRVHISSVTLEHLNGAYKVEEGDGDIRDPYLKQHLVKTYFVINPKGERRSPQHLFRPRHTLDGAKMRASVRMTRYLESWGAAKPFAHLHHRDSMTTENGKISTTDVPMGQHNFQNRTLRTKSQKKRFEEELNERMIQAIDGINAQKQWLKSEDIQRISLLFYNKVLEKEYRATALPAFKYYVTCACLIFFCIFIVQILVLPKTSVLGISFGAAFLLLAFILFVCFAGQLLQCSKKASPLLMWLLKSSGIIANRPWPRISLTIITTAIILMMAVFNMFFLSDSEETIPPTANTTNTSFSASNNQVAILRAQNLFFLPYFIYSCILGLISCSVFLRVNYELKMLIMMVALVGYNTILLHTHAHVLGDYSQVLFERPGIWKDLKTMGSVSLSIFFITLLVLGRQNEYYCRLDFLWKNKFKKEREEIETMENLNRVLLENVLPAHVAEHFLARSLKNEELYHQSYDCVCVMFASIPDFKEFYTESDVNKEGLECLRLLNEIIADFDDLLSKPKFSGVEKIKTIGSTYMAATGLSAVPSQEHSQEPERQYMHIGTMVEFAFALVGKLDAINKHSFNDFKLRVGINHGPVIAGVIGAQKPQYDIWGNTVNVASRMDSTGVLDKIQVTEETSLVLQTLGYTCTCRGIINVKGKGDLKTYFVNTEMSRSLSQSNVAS

As to `C=C[C@@]1(C)CC(=O)[C@]2(O)[C@@]3(C)[C@@H](O)CCC(C)(C)[C@@H]3[C@H](O)[C@H](OC(C)=O)[C@@]2(C)O1` [forskolin], the “fold stimulation at 25 μM” value is given as ~ 2.4 fold.
